In patent US6340654B1, “Freshness-retaining agent and method for agricultural/horticultural products” (priority 1999, dated 2002):

System: fresh pieces of apple (variety: Mutsu)
Test: Ethylene concentration lowering effect for apple (ethylene in hermetically closed jar, tubular gas detector)
Conditions: 23° C.
[1] = Table 1, 20 g apple pieces in closed 150-mL jar, 3 g agent
[2] = Table 2, vs. mixing ratio, 3 g agent per 20 g apple
[3] = Table 9, single substances 3 g, mixtures 1.5 g + 1.5 g, 20 g apple
[4] = Table 10, vs. mixing ratio, 3 g agent per 20 g apple

Protocol: Mouths of those jars were then hermetically closed with “[sequence]” (trademark; product of American National Can Company). Those jars were left over at 23° C., and on DAY 1, DAY 3 and DAY 6, the concentrations of ethylene in the respective jars were measured by a tubular gas detector (manufactured by Gastec, Inc.). The concentration of ethylene in a jar with “KIMWIPE” alone hermetically placed therein was also measured as a control.
Mouths of those jars were then hermetically closed with “[sequence]”. Those jars were left over at 23° C., and on DAY 1, DAY 3 and DAY 6, the concentrations of ethylene in the respective jars were measured by the tubular gas detector (manufactured by Gastec, Inc.). The concentration of ethylene in a jar with “KIMWIPE” alone hermetically placed therein was also measured as a control.
In 150-mL jars with 20 g per jar of fresh pieces of apple (variety: Mutsu) placed therein, portions (0.5 to 3 g) of a freshness-retaining agent [cinnamic acid:sodium hydrogen-carbonate=1:2 (by weight)] according to the present invention—all of which were individually wrapped with “KIMWIPE” (trademark for laboratory paper produced by Jujo-Kimberly Co., Ltd.)—were placed, respectively. Mouths of those jars were then hermetically closed with “[sequence]”. Those jars were left over at 23° C., and on DAY 1 and DAY 3, the concentrations of ethylene in the respective jars were measured by the tubular gas detector (manufactured by Gastec, Inc.). The concentration of ethylene in a jar with “KIMWIPE” alone hermetically placed therein was also measured as a control.
In 150-mL jars with 20 g per jar of fresh pieces of apple (variety: Mutsu) placed therein, three freshness-retaining agents according to the present invention [1:3 (by molar ratio) mixtures of cinnamic acid and hydrogencarbonates]—all of which were individually wrapped with “KIMWIPE” (trademark for laboratory paper produced by Jujo-Kimberly Co., Ltd.)—were placed, respectively. Mouths of those jars were then hermetically closed with “[sequence]”. Those jars were left over at 23° C., and on DAY 1 and DAY 3, the concentrations of ethylene in the respective jars were measured by the tubular gas detector (manufactured by Gastec, Inc.). The concentration of ethylene in a jar with “KIMWIPE” alone hermetically placed therein was also measured as a control.
Mouths of those jars were then hermetically closed with “[sequence]”.

| SMILES | Concentration of ethylene DAY 1 [1] | Concentration of ethylene DAY 2 (Table 1, DAY 2, 20 g apple pieces in closed 150-mL jar, 3 g agent) | Concentration of ethylene DAY 6 [1] | Concentration of ethylene DAY 1 [2] | Concentration of ethylene DAY 3 [2] | Concentration of ethylene DAY 6 [2] | Concentration of ethylene DAY 1 [3] | Concentration of ethylene DAY 3 [3] | Concentration of ethylene DAY 1 [4] | Concentration of ethylene DAY 3 [4] | Concentration of ethylene DAY 6 [4] |
| --- | --- | --- | --- | --- | --- | --- | --- | --- | --- | --- | --- |
| O=C(O)C=Cc1ccccc1 [Cinnamic acid, cinnamic acid] | 100 ppm | 100 ppm | 100 ppm | 38 ppm | 50 ppm | 50 ppm | – | – | – | – | – |
| O=C(O)CC(O)(CC(=O)O)C(=O)O [Citric acid, citric acid] | – | – | – | – | – | – | 275 ppm | 125 ppm | – | – | – |
| O=C([O-])CC(O)(CC(=O)[O-])C(=O)O.[Na+].[Na+] [Disodium citrate, disodium citrate] | – | – | – | – | – | – | 250 ppm | 150 ppm | – | – | – |
| O=C([O-])CC(O)(CC(=O)O)C(=O)O.[Na+] [Monosodium citrate, monosodium citrate] | – | – | – | – | – | – | 250 ppm | 125 ppm | – | – | – |
| O=C([O-])O.[Na+] [Sodium hydrogencarbonate, sodium hydrogencarbonate] | – | – | – | 50 ppm | 75 ppm | 125 ppm | 275 ppm | 150 ppm | 275 ppm | 150 ppm | 150 ppm |
